In patent US20080268435A1, “Brca1 Markers” (THE QUEEN'S UNIVERSITY OF BELFAST, priority 2004, published 2008):

How the values were obtained:
Type in all cases: cell-based
[1] = test system: HP1 and MDA-MB-231-zeo cell lines; experiment: 72 hour dose inhibition study of etoposide, psoriasin-expressing HP1 vs empty vector MDA-MB-231-zeo cells; details: HP1 (exogenous psoriasin) vs MDA-MB231-zeo vector control; 72 h continuous exposure; from IC50 values; three independent experiments
Method: (§1) Cells were either untreated (lanes 1 and 2) or treated with 1 μM etoposide for 24 hours. The blot was reprobed for GAPDH as a loading control, (b) A Western blot evaluating the expression of psoriasin protein in the HCC-EV1 cell line (lanes 1 and 3) and the HCC-BR116 cell line (lanes 2 and 4). Cells were either untreated (lanes 1 and 2) or treated with 1 μM etoposide for 24 hours. The blot was reprobed for GAPDH as a loading control, (c) A 72 hour dose inhibition study investigating the effect of psoriasin expression on the response to etoposide in the HP1 and MDA-MB-231-zeo cell lines. The IC50 values were calculated from the sigmoidal dose response curves. […] (Symbols □=HP1 cell line (psoriasin expression) ▴=MDA-MB-231-zeo (empty vector control), (d) A 72 hour dose inhibition study investigating the effect of loss of psoriasin expression on the response to etoposide in the HCCEV1 cell line. The IC50 values were calculated from the sigmoidal dose response curves. The results represent three independent experiments. (Symbols ▴=siRNA to psoriasin □=scrambled sequence). […]
The HCC-EV1 cell line was treated with scrambled or psoriasin specific siRNA and after 24 hours seeded at 100,000 cells per well on 24 well tissue culture plates. […] After 72 h of continuous drug exposure, cells were detached with trypsin, and counted using a Z2 particle and size analyzer (Coulter, Miami, Fla.). […]

[2] = test system: HCC-EV1 cell line; experiment: 72 hour dose inhibition study of etoposide in HCC-EV1 cells, psoriasin siRNA vs scrambled sequence; details: BRCA1 deficient HCC-EV cells, 72 h exposure, from IC50 values, three independent experiments
Method: as §1
For drug sensitivity assays HCC-EV and HCCBR cells were seeded onto 24-well tissue culture plates at a density of 100,000 cells per well. […] After 72 hours of continuous drug exposure, cells were detached with trypsin and counted using a Z2 particle and size analyser (Coulter, Miami, Fla.). […]

[3] = test system: psoriasin (S100A7) mRNA and protein in HCC-EV1 and HCC-BR116 cells; experiment: Northern and Western blot of psoriasin expression after etoposide treatment; details: BRCA1 deficient cells (HCC-EV1), 1 μM etoposide for 24 hours
Method: Cells were either untreated (lanes 1 and 2) or treated with 1 μM etoposide for 24 hours. The blot was reprobed for GAPDH as a loading control, (b) A Western blot evaluating the expression of psoriasin protein in the HCC-EV1 cell line (lanes 1 and 3) and the HCC-BR116 cell line (lanes 2 and 4). Cells were either untreated (lanes 1 and 2) or treated with 1 μM etoposide for 24 hours. The blot was reprobed for GAPDH as a loading control, (c) A 72 hour dose inhibition study investigating the effect of psoriasin expression on the response to etoposide in the HP1 and MDA-MB-231-zeo cell lines. The IC50 values were calculated from the sigmoidal dose response curves. The results represent three independent experiments. (Symbols □=HP1 cell line (psoriasin expression) ▴=MDA-MB-231-zeo (empty vector control), (d) A 72 hour dose inhibition study investigating the effect of loss of psoriasin expression on the response to etoposide in the HCCEV1 cell line. The IC50 values were calculated from the sigmoidal dose response curves. The results represent three independent experiments. (Symbols ▴=siRNA to psoriasin □=scrambled sequence). […]

In the case of `COc1cc([C@@H]2c3cc4c(cc3[C@@H](O[C@@H]3O[C@@H]5CO[C@@H](C)O[C@H]5[C@H](O)[C@H]3O)[C@H]3COC(=O)[C@H]23)OCO4)cc(OC)c1O` [etoposide], the “increase in sensitivity to etoposide induced by expression of psoriasin” value [1] is reported as 4000 fold, the “increase in resistance to etoposide induced by inhibition of endogenous psoriasin” value [2] is reported as “greater than 20 fold” and the “expression of psoriasin mRNA and protein following etoposide treatment” value [3] is reported as “enhanced expression”.
